In patent publication US11655246B2, “Aminothiazole compounds as inhibitors of CTPS1” (STEP PHARMA S.A.S., priority 2017, dated 2023) one finds IC50 data, which are given here for 58 compounds.

Where “and” joins values, the source holds several entries; their conditions need not be identical. Equal values may be shown once.

The test has as its target T1, human CTPS1 (Homo sapiens, UniProt P17812).
T1 construct: purchased Proteros biostructures GmbH
T1 sequence (P17812 1-591): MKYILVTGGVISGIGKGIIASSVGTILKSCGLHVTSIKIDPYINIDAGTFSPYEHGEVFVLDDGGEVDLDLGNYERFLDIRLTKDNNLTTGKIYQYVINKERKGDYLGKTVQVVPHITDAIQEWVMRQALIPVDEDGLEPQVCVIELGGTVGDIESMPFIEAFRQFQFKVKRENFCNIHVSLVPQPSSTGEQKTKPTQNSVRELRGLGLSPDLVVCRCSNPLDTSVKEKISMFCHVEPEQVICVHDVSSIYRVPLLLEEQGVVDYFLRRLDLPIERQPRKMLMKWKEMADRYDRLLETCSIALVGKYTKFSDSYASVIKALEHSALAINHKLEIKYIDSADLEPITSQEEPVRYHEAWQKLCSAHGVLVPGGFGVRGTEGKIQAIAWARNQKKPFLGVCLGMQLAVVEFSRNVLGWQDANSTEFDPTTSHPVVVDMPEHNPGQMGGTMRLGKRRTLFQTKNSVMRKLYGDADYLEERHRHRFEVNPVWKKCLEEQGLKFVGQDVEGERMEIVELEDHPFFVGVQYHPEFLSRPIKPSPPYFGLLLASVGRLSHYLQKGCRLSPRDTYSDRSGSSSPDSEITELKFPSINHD
Put plainly: Human CTPS1 enzyme inhibition (ADP-Glo Max assay). Conditions: Table 17, 25° C., read-out: CTPS1 (Human CTPS1 Enzyme Inhibition data grouped by potency range). It is filed as biochemical. Here is the method:
The enzyme inhibitory activities of compounds invented against the target of interest were determined using the ADP-Glo™ Max assay (Promega, UK). Assays for human CTPS1 were performed in 1× assay buffer containing 50 mM Tris, 10 mM MgCl2, 0.01% Tween-20, pH to 8.0 accordingly. Finally, immediately before use, L-cysteine was added to the 1× assay buffer to a final concentration of 2 mM. All reagents are from Sigma-Aldrich unless specified otherwise.
3× human CTPS1 protein was prepared in 1× assay buffer to the final working protein concentration required for the reaction. A 2 uL volume per well of 3× human CTPS1 protein was mixed with 2 uL per well of 3× test compound (compound prepared in 1× assay buffer to an appropriate final 3× compound concentration respective to the concentration response curve designed for the compounds under test) for 10 minutes at 25° C. […] ADP-Glo™ Max reagent was added for 60 minutes (6 uL per well) and subsequently ADP-Glo™ Max development reagent was added for 60 minutes (12 uL per well) prior to signal detection in a microplate reader (EnVision® Multilabel Reader, Perkin Elmer). Following each reagent addition over the course of the assay, assay plates were pulse centrifuged for 30 seconds at 500 rpm.
In all cases, the enzyme converts ATP to ADP and the ADP-Glo™ Max reagent subsequently depletes any remaining endogenous ATP in the reaction system. The ADP-Glo™ Max detection reagent converts the ADP that has been enzymatically produced back into ATP and using ATP as a substrate together with luciferin for the enzyme luciferase, light is generated which produces a detectable luminescence. […] The percentage inhibition produced by each concentration of compound was calculated using the equation shown below: […]
Background: ADP-Glo first removes unused ATP, then detects ADP through luciferase.
With `CCC(C(=O)Nc1ccc(-c2cncc(OC(C)C)n2)cc1)c1csc(NS(=O)(=O)C2CC2)n1` (stereo not shown) [T76], the IC50 was < 100 nM. Regarding `CCC(C(=O)Nc1ccc(-c2cncc(OC3CC3)n2)cc1)c1csc(NS(=O)(=O)C2CC2)n1` (stereo not shown) [T77], the IC50 is < 100 nM.

Regarding `CCC(C(=O)Nc1ccc(-c2cncc(Cl)n2)cc1)c1csc(NS(=O)(=O)C2CC2)n1` (stereo not shown) [T78, N-(4-(6-chloropyrazin-2-yl)phenyl)-2-(2-(cyclopropanesulfonamido)thiazol-4-yl)butanamide], the IC50 is < 100 nM.

As for `CCC(C(=O)Nc1ccc(-c2cncc(C#N)n2)cc1)c1csc(NS(=O)(=O)C2CC2)n1` (stereo not shown) [T79], the IC50 lay within 100 to 1000 nM. To `O=C(Nc1ccc(-c2ccccc2)cc1)C1CCCc2sc(NS(=O)(=O)C3CC3)nc21` (stereo not shown) [T83] belongs 1000 to 10000 nM; to `O=C(Nc1ccc(-c2cccnc2)cc1)C1CCCc2sc(NS(=O)(=O)C3CC3)nc21` (stereo not shown) [T84], 100 to 1000 nM; to `CCC(C(=O)Nc1ccc(-c2ccccc2)cc1)c1csc(NS(=O)(=O)C2CC2)n1` (stereo not shown) [T85], 100 to 1000 nM. To `CC(C)C(C(=O)Nc1ccc(-c2ccccc2)cc1)c1csc(NS(=O)(=O)C2CC2)n1` (stereo not shown) [T86] belongs 1000 to 10000 nM; to `CC(C)(C(=O)Nc1ccc(-c2cccc(Cl)c2)cc1)c1csc(NS(=O)(=O)C2CC2)n1` [T87], 100 to 1000 nM.

With `CC(C)(C(=O)Nc1ccc(-c2cccc(C#N)c2)cc1)c1csc(NS(=O)(=O)C2CC2)n1` [T88], the IC50 lay within 100 to 1000 nM. To `O=C(Nc1ccc(-c2cccnc2)cc1)C(F)(F)c1csc(NS(=O)(=O)C2CC2)n1` [T89] belongs < 100 nM; to `CCC(C(=O)Nc1ccc(-c2cncc(F)c2)cc1)c1csc(NS(=O)(=O)C2CC2)n1` (stereo not shown) [T90], < 100 nM; to `CCOc1cncc(-c2ccc(NC(=O)C(C)c3csc(NS(=O)(=O)C4CC4)n3)cc2)c1` (stereo not shown) [T94], < 100 nM.

For `CC(C(=O)Nc1ccc(-c2cncc(Cl)c2)cc1)c1csc(NS(=O)(=O)C2CC2)n1` (stereo not shown) [T95], the IC50 was < 100 nM. To `CCOc1cncc(-c2ccc(NC(=O)C(CC)c3csc(NS(=O)(=O)C4CC4)n3)cc2)c1` (stereo not shown) [T96] belongs < 100 nM; to `Cc1ncccc1-c1ccc(NC(=O)Cc2csc(NS(=O)(=O)C3CC3)n2)cc1` [T100], 100 to 1000 nM. To `CC(C(=O)Nc1ccc(-c2cccnc2)cc1)c1csc(NS(=O)(=O)C2CC2)n1` (stereo not shown) [T102] belongs < 100 nM; to `CCC(CC)(C(=O)Nc1ccc(-c2cncc(Cl)c2)cc1)c1csc(NS(=O)(=O)C2CC2)n1` [T120], < 100 nM; to `CC(C)(C(=O)Nc1ccc(-c2cccnc2)c(Cl)c1)c1csc(NS(=O)(=O)C2CC2)n1` [T153], 100 to 1000 nM. Consider `CCC(CC)(C(=O)Nc1ccc(-c2cncc(Cl)n2)cc1)c1csc(NS(=O)(=O)C2CC2)n1` [T160], for which the IC50 was < 100 nM. On to `O=C(Nc1ccc(-c2cncc(C(F)(F)F)n2)cn1)C1CCc2sc(NS(=O)(=O)C3CC3)nc21` (stereo not shown) [T169], for which the IC50 was in the range of 100 to 1000 nM. Consider `COCCC(C(=O)Nc1ccc(-c2cnccn2)cn1)c1csc(NS(=O)(=O)C2CC2)n1` (stereo not shown) [T170], for which the IC50 is 100 to 1000 nM. To `COCCC(C(=O)Nc1ccc(-c2cncc(OC)c2)cn1)c1csc(NS(=O)(=O)C2CC2)n1` (stereo not shown) [T171] belongs < 100 nM; to `CC(C)OC(C(=O)Nc1ccc(-c2cncc(C(F)(F)F)n2)cn1)c1csc(NS(=O)(=O)C2CC2)n1` (stereo not shown) [T172], < 100 nM. In the case of `CCCOc1cncc(-c2ccc(NC(=O)C(CC)c3csc(NS(=O)(=O)C4CC4)n3)nc2)n1` (stereo not shown) [T173], the IC50 is < 100 nM. To `CCC(C(=O)Nc1ccc(-c2cncc(OC(C)C)n2)cn1)c1csc(NS(=O)(=O)C2CC2)n1` (stereo not shown) [T174] belongs < 100 nM; to `CCC(C(=O)Nc1ccc(-c2cncc(C(F)(F)F)n2)cn1)c1csc(NS(=O)(=O)C2CC2)n1` (stereo not shown) [T175], < 100 nM; to `CCC(C(=O)Nc1ccc(-c2cncc(OC)n2)cn1)c1csc(NS(=O)(=O)C2CC2)n1` (stereo not shown) [T176], < 100 nM. To `CCOc1cncc(-c2ccc(NC(=O)C(CC)c3csc(NS(=O)(=O)C4CC4)n3)nc2)n1` (stereo not shown) [T177] belongs < 100 nM; to `CCC(C(=O)Nc1ccc(-c2cncc(C#N)n2)cn1)c1csc(NS(=O)(=O)C2CC2)n1` (stereo not shown) [T178], 1000 to 10000 nM; to `CCC(C(=O)Nc1ccc(-c2cncc(F)c2)cn1)c1csc(NS(=O)(=O)C2CC2)n1` (stereo not shown) [T179], < 100 nM. To `CCC(C(=O)Nc1ccc(-c2cncc(C#N)c2)cn1)c1csc(NS(=O)(=O)C2CC2)n1` (stereo not shown) [T180] belongs < 100 nM. As to `CCC(C(=O)Nc1ccc(-c2ccccc2)cn1)c1csc(NS(=O)(=O)C2CC2)n1` (stereo not shown) [T181], the IC50 was 100 to 1000 nM. To `CCC(C(=O)Nc1ccc(-c2cncc(OCC(F)(F)F)n2)cn1)c1csc(NS(=O)(=O)C2CC2)n1` (stereo not shown) [T182] belongs < 100 nM; to `CCOc1cncc(-c2cnc(NC(=O)C(CC)c3csc(NS(=O)(=O)C4CC4)n3)c(F)c2)n1` (stereo not shown) [T183], < 100 nM. To `CCC(C(=O)Nc1ncc(-c2cncc(C#N)n2)cc1F)c1csc(NS(=O)(=O)C2CC2)n1` (stereo not shown) [T184] belongs 1000 to 10000 nM; to `CCC(C(=O)Nc1ccc(-c2cncc(OCC(F)(F)F)c2)cn1)c1csc(NS(=O)(=O)C2CC2)n1` (stereo not shown) [T185], < 100 nM and 100 to 1000 nM; to `CCC(C(=O)Nc1ccc(-c2cncc(OC(F)F)c2)cn1)c1csc(NS(=O)(=O)C2CC2)n1` (stereo not shown) [T186], < 100 nM. Regarding `CCC(C(=O)Nc1ccc(-c2cncc(Cl)n2)cn1)c1csc(NS(=O)(=O)C2CC2)n1` (stereo not shown) [T187], the IC50 was < 100 nM. With `CCOc1cncc(-c2ccc(NC(=O)C(CC)c3csc(NS(=O)(=O)C4CC4)n3)cc2)n1` (stereo not shown) [T189], the IC50 is < 100 nM. To `COCCC(C(=O)Nc1ccc(-c2cncc(OC)n2)cc1)c1csc(NS(=O)(=O)C2CC2)n1` (stereo not shown) [T190] belongs < 100 nM. To `COCCC(C(=O)Nc1ccc(-c2cncc(F)c2)cc1)c1csc(NS(=O)(=O)C2CC2)n1` (stereo not shown) [T191] belongs < 100 nM; to `CCOc1cncc(-c2ccc(NC(=O)C(C)c3csc(NS(=O)(=O)C4CC4)n3)cc2)n1` (stereo not shown) [T192], < 100 nM; to `CCC(C(=O)Nc1ccc(-c2cncc(C(F)(F)F)c2)cc1)c1csc(NS(=O)(=O)C2CC2)n1` (stereo not shown) [T193], < 100 nM. To `CCC(C(=O)Nc1ccc(-c2cncc(C#N)c2)cc1)c1csc(NS(=O)(=O)C2CC2)n1` (stereo not shown) [T194] belongs < 100 nM; to `CCC(C(=O)Nc1ccc(-c2cncc(OCC(F)(F)F)n2)cc1)c1csc(NS(=O)(=O)C2CC2)n1` (stereo not shown) [T195], < 100 nM.

In the case of `CCC(C(=O)Nc1ccc(-c2cnccn2)cc1F)c1csc(NS(=O)(=O)C2CC2)n1` (stereo not shown) [T196], the IC50 was < 100 nM. Regarding `CCC(C(=O)Nc1ccc(-c2cncc(C(F)(F)F)n2)cc1F)c1csc(NS(=O)(=O)C2CC2)n1` (stereo not shown) [T197], the IC50 is < 100 nM. To `CCOc1cncc(-c2ccc(NC(=O)C(CC)c3csc(NS(=O)(=O)C4CC4)n3)c(F)c2)n1` (stereo not shown) [T198] belongs < 100 nM; to `CCOc1cncc(-c2ccc(NC(=O)C(CC)c3csc(NS(=O)(=O)C4CC4)n3)c(F)c2)c1` (stereo not shown) [T199], < 100 nM; to `CCC(C(=O)Nc1ccc(-c2cncc(F)c2)cc1F)c1csc(NS(=O)(=O)C2CC2)n1` (stereo not shown) [T200], < 100 nM. To `CCC(C(=O)Nc1ccc(-c2cccnc2)cc1F)c1csc(NS(=O)(=O)C2CC2)n1` (stereo not shown) [T201] belongs < 100 nM; to `CCC(C(=O)Nc1ccc(-c2cncc(C#N)c2)cc1F)c1csc(NS(=O)(=O)C2CC2)n1` (stereo not shown) [T202], < 100 nM; to `CCC(C(=O)Nc1ccc(-c2cncc(Cl)c2)cc1F)c1csc(NS(=O)(=O)C2CC2)n1` (stereo not shown) [T203], < 100 nM. As for `CCOc1cncc(-c2ccc3c(c2)CCN3C(=O)C(CC)c2csc(NS(=O)(=O)C3CC3)n2)n1` (stereo not shown) [T206], the IC50 is < 100 nM. `CCC(C(=O)Nc1ccc(-c2cncc(OCC(F)(F)F)n2)cc1F)c1csc(NS(=O)(=O)C2CC2)n1` (stereo not shown) [T207]: the IC50 is < 100 nM. For the compound `CCC(C(=O)Nc1ccc(-c2cncc(OC)n2)cc1F)c1csc(NS(=O)(=O)C2CC2)n1` (stereo not shown) [T208], the IC50 is < 100 nM.

On to `CCC(C(=O)Nc1ccc(-c2cncc(OC(F)F)c2)cc1F)c1csc(NS(=O)(=O)C2CC2)n1` (stereo not shown) [T209], for which the IC50 was < 100 nM.
